Measurements: patent US10092575B2, “Substituted thiophene- and furan-fused azolopyrimidine-5-(6H)-one compounds” (DART NEUROSCIENCE (CAYMAN) LTD., priority 2012, dated 2018)

System: NS1 cells
Assay: Neurite outgrowth (NOG) assay
Format: cell-based
Protocol: Neuroscreen 1 (NS1) Cells (Cellomics Inc.) were cultured on collagen type I coated 75 cm2 plastic flasks (Biocoat, Becton Dickinson) in a humidified incubator at 37° C. in 5% CO2. Cells were cultured in RPMI complete cell culture medium (Cambrex) supplemented with 10% heat-inactivated horse serum (Invitrogen), 5% heat-inactivated fetal bovine serum (Cellgro), and 2 mM L-glutamine (Cambrex). For expansion, the cells were trypsinized and split at 80% confluence. Cell culture media was changed every 2 to 3 days.
NS1 cells were harvested and counted using a Coulter counter (Becton Dickinson Coulter Z1). Cells were seeded in 96-well collagen I coated plates at a density of 2000 cells per well in volume of […]. RPMI media was supplemented with 200 ng/ml nerve growth factor (NGF, Sigma). NS1 cells were incubated for 72 hours to allow differentiation to a neuronal phenotype. […]
Antibody-stained 96-well plates were stored at 4° C. in the dark until scanning. […] The neurite outgrowth assay is based on two channels to scanning: (1) Channel 1, which detects the Hoechst Dye and is used by the software to identify cells and for automated focusing; and (2) Channel 2, which detects the FITC fluorescence of the secondary antibody and is used by the software to calculate all data generated in reference to neurites. […]

Structure (SMILES): COc1ccc(C2CNC(=O)C2)cc1OC1CCCC1 (centres unmarked) [Rolipram]
- neurite length and branching / neurite outgrowth (alone, without forskolin): not affected
- neurite length and branching / neurite outgrowth (in combination with forskolin): enhanced in dose-dependent manner
